The first experiment deals with T1, mutant B-RAF (Homo sapiens, UniProt P15056, V600E).
T1 construct: purchased Upstate (Charlottesville, Va.)
T1 sequence (P15056 whole entry V600E): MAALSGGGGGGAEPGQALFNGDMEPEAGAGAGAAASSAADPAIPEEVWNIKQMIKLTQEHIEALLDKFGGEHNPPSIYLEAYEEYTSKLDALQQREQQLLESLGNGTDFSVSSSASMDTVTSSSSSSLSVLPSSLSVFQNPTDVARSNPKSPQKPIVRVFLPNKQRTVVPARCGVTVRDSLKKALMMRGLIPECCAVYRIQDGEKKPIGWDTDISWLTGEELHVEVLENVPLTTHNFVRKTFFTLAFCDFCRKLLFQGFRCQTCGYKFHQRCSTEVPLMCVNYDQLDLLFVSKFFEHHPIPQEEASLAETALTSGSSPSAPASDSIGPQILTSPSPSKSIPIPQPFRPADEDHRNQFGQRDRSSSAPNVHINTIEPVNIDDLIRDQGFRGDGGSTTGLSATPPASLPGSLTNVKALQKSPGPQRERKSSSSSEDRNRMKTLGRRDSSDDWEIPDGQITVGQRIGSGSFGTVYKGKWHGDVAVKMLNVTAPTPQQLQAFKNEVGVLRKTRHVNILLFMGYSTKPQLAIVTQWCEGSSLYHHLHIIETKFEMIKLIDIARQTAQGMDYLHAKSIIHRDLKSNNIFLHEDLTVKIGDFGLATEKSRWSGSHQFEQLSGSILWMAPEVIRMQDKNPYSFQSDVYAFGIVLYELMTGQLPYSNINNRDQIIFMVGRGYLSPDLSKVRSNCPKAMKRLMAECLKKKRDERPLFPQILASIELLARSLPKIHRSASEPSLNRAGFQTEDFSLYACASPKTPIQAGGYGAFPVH
As to the kind of experiment: RAF biochemical assay (MEK-1 phosphorylation, anti-phospho MEK1/2 detection).
Conditions: not given
As to the method: Materials: The RAF kinases and the anti-phospho MEK1/2 antibody were from Upstate (Charlottesville, Va.). The RAF substrate used was full length N-terminal GST-MEK-1, which was expressed in E. coli and purified in-house by HPLC. All proteins were aliquoted and stored at −80° C.
Compounds were serially diluted in assay buffer containing 1% DMSO and 20 μL of test compound at a concentration 3-fold more than the final concentration, and were added to a polypropylene V-well reaction plate. Vehicle control wells received buffer only with DMSO at equivalent concentrations to the test wells. […] These reaction plates were incubated at room temperature for 30 minutes. Capture of MEK-1 was initiated by transferring 50 μl of the reaction mixture to a Nunc Maxisorp™ microplate that is designed for non-specific protein capture. After 30 minute capture of MEK-1 at room temperature, this plate was washed with TBST (6×200 μL/well) to fully terminate the reaction. The plate was then blocked for 1 hour by the addition of 100 μl/well of Superblock™ in phosphate buffered saline (PBS) blocking reagent. Plate was again washed with TBST (6 times with 200 μL/well), followed by the addition of 70 μL/well of Upstate anti-phospho MEK 1/2 diluted 1:1000 in Pierce Superblock (PBS). After a 60 minute incubation, this plate was washed with TBST (6 times with 200 μL/well), and 70 μL of the secondary antibody (Pierce Alkaline Phosphatase tagged goat anti-rabbit) prepared at 1:4000 in Superblock, were added. After a 45 minute incubation at room temperature, the wells of the microplate were washed with TBST (6 times with 200 μL/well), and thereafter 100 μl/well of Attophos™ fluorescent alkaline phosphatase substrate was added according to the manufacturer's instructions (JBL Scientific).
As usually defined, the IC50 is the concentration that inhibits the measured activity by half. The compound `O=C(c1ccco1)N1CCC[C@@H](Nc2nccc(-c3c(-c4ccc(F)cc4)nc4occn34)n2)C1` [Example 33, 4-[6-(4-fluorophenyl)imi-dazo[2,1-b][1,3]oxazol-5-yl]-N-[(3R)-1-(2-furoyl)piperidin-3-yl]pyrimidin-2-amine] showed an IC50 of 2170 nM.

Staying with this experiment, now noted: @ 10 uM; read-out: Mutant B-RAF % inhibition.
As a reminder, the inhibition is the share of the control response that was lost under treatment. With `COc1cccc(-c2nc3sccn3c2-c2ccnc(N[C@@H]3CCNC3)n2)c1` [Example 279, 4-[6-(3-methoxyphenyl)imidazo[2,1-b][1,3]thiazol-5-yl]-N-[(3R)-pyrrolidin-3-yl]pyrimidin-2-amine], the inhibition at 10 µM amounted to 36%.

In the case of `Cc1ccc(NC(=O)N2CCC[C@@H](Nc3nccc(-c4c(-c5ccc(F)cc5)nc5occn45)n3)C2)cc1` [Example 17], the inhibition at 10 µM was 16%. Consider `c1cc(-c2c(-c3ccc4c(c3)OCCO4)nc3sccn23)nc(N[C@@H]2CCCNC2)n1` [Example 99, 4-[6-(2,3-dihydro-1,4-benzodioxin-6-yl)imidazo[2,1-b][1,3]thiazol-5-yl]-N-[(3R)-piperidin-3-yl]pyrimidin-2-amine], for which the inhibition at 10 µM is 29%. Regarding `Cc1noc(C)c1NC(=O)N1CCC(Nc2nccc(-c3c(-c4ccc(F)cc4)nc4occn34)n2)CC1` [Example 178, N-(3,5-dimethylisoxazol-4-yl)-4-({4-[6-(4-fluorophenyl)imidazo[2,1-b][1,3]oxazol-5-yl]pyrimidin-2-yl}amino)piperidine-1-carboxamide], the inhibition at 10 µM turned out to be 19%. The same measure, in the same setting: to `O=C(NCc1ccc(F)cc1)N1CCC(Nc2nccc(-c3c(-c4ccc(F)cc4)nc4occn34)n2)CC1` [Example 194, N-(4-fluorobenzyl)-4-({4-[6-(4-fluorophenyl)imidazo[2,1-b][1,3]oxazol-5-yl]pyrimidin-2-yl}amino)piperidine-1-carboxamide] belongs 55%. Consider `COCC(=O)N1CCC(Nc2nccc(-c3c(-c4ccc(F)cc4)nc4occn34)n2)CC1` [Example 163, 4-[6-(4-fluorophenyl)imidazo[2,1-b][1,3]oxazol-5-yl]-N-[1-(methoxyacetyl)piperidin-4-yl]pyrimidin-2-amine], for which the inhibition at 10 µM was found to be 53%. The same measure, in the same setting: to `NCCC(=O)Nc1ccccc1-c1nc2sccn2c1-c1ccnc(N[C@@H]2CCCN(S(=O)(=O)c3ccc(Cl)cc3)C2)n1` [Example 138, N~1~-(2-{5-[2-({(3R)-1-[(4-chlorophenyl)sulfonyl]piperidin-3-yl}amino)pyrimidin-4-yl]imidazo[2,1-b][1,3]thiazol-6-yl}phenyl)-beta-alaninamide] belongs 82%; to `c1cc(-c2c(-c3ccc4c(c3)OCCO4)nc3sccn23)nc(NC2CCNCC2)n1` [Example 249, 4-[6-(2,3-dihydro-1,4-benzodioxin-6-yl)imidazo[2,1-b][1,3]thiazol-5-yl]-N-piperidin-4-ylpyrimidin-2-amine], 58%.

The same experiment, now with this note: read-out: Mutant B-RAF IC50.
As to `O=S(=O)(c1ccc(Cl)cc1)N1CCC(Nc2nccc(-c3c(-c4ccc(F)c(F)c4)nc4sccn34)n2)CC1` [Example 265, N-{1-[(4-chlorophenyl)sulfonyl]piperidin-4-yl}-4-[6-(3,4-difluorophenyl)imidazo[2,1-b][1,3]thiazol-5-yl]pyrimidin-2-amine], the IC50 was over 3000 nM. Turning to `COc1cccc(-c2nc3sccn3c2-c2ccnc(N[C@@H]3CCCN(C(=O)Nc4ccc(F)cc4)C3)n2)c1` [Example 327, (3R)-N-(4-fluorophenyl)-3-({4-[6-(3-methoxyphenyl)imidazo[2,1-b][1,3]thiazol-5-yl]pyrimidin-2-yl}amino)piperidine-1-carboxamide], the IC50 was 4000 nM. The same measure, in the same setting: next, `O=S(=O)(c1cccc(C(F)(F)F)c1)N1CCC(Nc2nccc(-c3c(-c4ccc(F)cc4)nc4occn34)n2)CC1` [Example 202, 4-[6-(4-fluorophenyl)imidazo[2,1-b][1,3]oxazol-5-yl]-N-(1-{[3-(trifluoromethyl)phenyl]sulfonyl}piperidin-4-yl)pyrimidin-2-amine]: 840 nM; `CSc1ccc(NC(=O)N2CCC[C@@H](Nc3nccc(-c4c(-c5cccc(O)c5)nc5sccn45)n3)C2)cc1` [Example 344, (3R)-3-({4-[6-(3-hydroxyphenyl)imidazo[2,1-b][1,3]thiazol-5-yl]pyrimidin-2-yl}amino)-N-[4-(methylthio)phenyl]piperidine-1-carboxamide]: 2450 nM.

As for `O=S(=O)(c1cccc(O)c1)N1CCC[C@@H](Nc2nccc(-c3c(-c4cccc(O)c4)nc4sccn34)n2)C1` [Example 143, 3-{[(3R)-3-({4-[6-(3-hydroxyphenyl)imidazo[2,1-b][1,3]thiazol-5-yl]pyrimidin-2-yl}amino)piperidin-1-yl]sulfonyl}phenol], the IC50 was found to be 19 nM. Take `NC(=O)c1cccc(-c2nc3sccn3c2-c2ccnc(N[C@@H]3CCCN(S(=O)(=O)c4ccc(Cl)cc4)C3)n2)c1` [Example 350, 3-{5-[2-({(3R)-1-[(4-chlorophenyl)sulfonyl]piperidin-3-yl}amino)pyrimidin-4-yl]imidazo[2,1-b][1,3]thiazol-6-yl}benzamide]: the IC50 was found to be 140 nM. Still for that read-out and setting: to `N#Cc1ccc(S(=O)(=O)N2CCC[C@@H](Nc3nccc(-c4c(-c5ccc(F)cc5)nc5occn45)n3)C2)cc1` [Example 55, 4-{[(3R)-3-({4-[6-(4-fluorophenyl)imidazo[2,1-b][1,3]oxazol-5-yl]pyrimidin-2-yl}amino)piperidin-1-yl]sulfonyl}benzonitrile] belongs 630 nM; to `CCCS(=O)(=O)N1CCC[C@@H](Nc2nccc(-c3c(-c4cccc(O)c4)nc4occn34)n2)C1` [Example 393, 3-[5-(2-{[(3R)-1-(propylsulfonyl)piperidin-3-yl]amino}pyrimidin-4-yl)imidazo[2,1-b][1,3]oxazol-6-yl]phenol], 330 nM. The same measure, in the same setting: next, `O=S(=O)(c1ccccc1)N1CCC(Nc2nccc(-c3c(-c4ccc(F)cc4)nc4occn34)n2)CC1` [Example 197, 4-[6-(4-fluorophenyl)imidazo[2,1-b][1,3]oxazol-5-yl]-N-[1-(phenylsulfonyl)piperidin-4-yl]pyrimidin-2-amine]: 168 nM. With `COc1cccc(-c2nc3sccn3c2-c2ccnc(NC3CCNCC3)n2)c1` [Example 208, 4-[6-(3-methoxyphenyl)imidazo[2,1-b][1,3]thiazol-5-yl]-N-piperidin-4-ylpyrimidin-2-amine], the half-inhibitory concentration (IC50) was 2930 nM. As for `O=Cc1ccc(-c2nc3sccn3c2-c2ccnc(N[C@@H]3CCCN(S(=O)(=O)c4ccc(Cl)cc4)C3)n2)cc1` [Example 385, 4-{5-[2-({(3R)-1-[(4-chlorophenyl)sulfonyl]piperidin-3-yl}amino)pyrimidin-4-yl]imidazo[2,1-b][1,3]thiazol-6-yl}benzaldehyde], the IC50 stood at 876 nM. Turning to `O=[N+]([O-])c1ccccc1-c1nc2sccn2c1-c1ccnc(N[C@@H]2CCCN(S(=O)(=O)c3ccc(Cl)cc3)C2)n1` [Example 131, N-{(3R)-1-[(4-chlorophenyl)sulfonyl]piperidin-3-yl}-4-[6-(2-nitrophenyl)imidazo[2,1-b][1,3]thiazol-5-yl]pyrimidin-2-amine], the IC50 is 25 nM. As to `O=S(=O)(c1ccc(Cl)cc1)N1CCC[C@@H](Nc2nccc(-c3c(-c4cccc(O)c4)nc4sccn34)n2)C1` [Example 288, 3-{5-[2-({(3R)-1-[(4-chlorophenyl)sulfonyl]piperidin-3-yl}amino)pyrimidin-4-yl]imidazo[2,1-b][1,3]thiazol-6-yl}phenol], the half-inhibitory concentration (IC50) is 2 nM. `N#Cc1cccc(-c2nc3sccn3c2-c2ccnc(N[C@@H]3CCCN(S(=O)(=O)c4ccc(Cl)cc4)C3)n2)c1` [Example 126, 3-{5-[2-({(3R)-1-[(4-chlorophenyl)sulfonyl]piperidin-3-yl}amino)pyrimidin-4-yl]imidazo[2,1-b][1,3]thiazol-6-yl}benzonitrile]: the IC50 stood at 710 nM. As for `CCNC(=O)N1CCC(Nc2nccc(-c3c(-c4cccc(OC)c4)nc4sccn34)n2)CC1` [Example 213, N-ethyl-4-({4-[6-(3-methoxyphenyl)imidazo[2,1-b][1,3]thiazol-5-yl]pyrimidin-2-yl}amino)piperidine-1-carboxamide], the IC50 was 2040 nM. Still for that read-out and setting: next, `O=[N+]([O-])c1ccccc1-c1nc2sccn2c1-c1ccnc(NC2CCN(S(=O)(=O)c3ccc(Cl)cc3)CC2)n1` [Example 274, N-{1-((4-chlorophenyl)sulfonyl]piperidin-4-yl}-4-[6-(2-nitrophenyl)imidazo[2,1-b][1,3]thiazol-5-yl]pyrimidin-2-amine]: 722 nM; `O=S(=O)(c1ccc(Cl)cc1)N1CCC[C@@H](Nc2nccc(-c3c(-c4ccc(F)cc4)nc4sccn34)n2)C1` [Example 98, N-{(3R)-1-[(4-chlorophenyl)sulfonyl]piperidin-3-yl}-4-[6(4-fluorophenyl)imidazo[2,1-b][1,3]thiazol-5-yl]pyrimidin-2-amine]: 36 nM; `O=C(NC1CCCCC1)N1CCC(Nc2nccc(-c3c(-c4ccc(F)cc4)nc4occn34)n2)CC1` [Example 167, N-cyclohexyl-4-({4-[6-(4-fluorophenyl)imidazo[2,1-b][1,3]oxazol-5-yl]pyrimidin-2-yl}amino)piperidine-1-carboxamide]: 4710 nM.

For the origin of these results see patent publication US7501430B2 (ArQule, Inc., priority 2006, dated 2009).
